# Test results taken from patent US10800772B2 (Gilead Sciences, Inc., priority 2016, dated 2020).
# Where two headings read alike, the source gives them in different places.
# What was measured:
# Assay type in all cases: cell-based, HIV-1
# [1] = system: HIV-IIIb IN T174I BT; assay: Antiviral assay in MT4 cells, HIV-IIIb IN T174I BT virus (from viral breakthrough); conditions: Human immunodeficiency virus 1, IIIB, MT4, 120 h, read-out: T174I BT EC50, MT4 cells, HIV-IIIb IN T174I BT (viral breakthrough), 5 days, CellTiter-Glo
# Outline: (§1)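 Compounds were titrated as 3-fold serial dilutions at 10 concentrations, in quadruplicate, against 2000 MT4 cells/well that had been infected for 3 h with HIV-IIIb at 0.004 m.o.i. Viruses were wildtype or integrase T174I mutants from breakthrough selection or dose-escalation passaging; mock-infected cells were run in parallel. After 5 days' culture, EC50 was derived as 50% reduction of CellTiter-Glo luminescence, which reflects HIV-1 replication.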
# [2] = system: HIV-IIIb (wildtype); assay: Antiviral assay in MT4 cells, HIV-IIIb wildtype; conditions: read-out: WT EC50
# Outline: as §1
# [3] = system: HIV-IIIb IN T174I DE; assay: Antiviral assay in MT4 cells, HIV-IIIb IN T174I DE virus (from dose escalation passaging); conditions: Human immunodeficiency virus 1, IIIB, MT4, 120 h, read-out: T174I DE EC50, MT4 cells, HIV-IIIb IN T174I DE (dose escalation), 5 days, CellTiter-Glo
# Outline: as §1
# [4] = Human immunodeficiency virus 1, IIIB, MT4, 120 h
# [5] = Human immunodeficiency virus 1, 120 h, MT4 cells, HIV-IIIb wildtype, 5 days, CellTiter-Glo
SMILES,EC50 [1] [nM],"EC50 [2, 4] [nM]",EC50 [3] [nM],"EC50 [2, 5] [nM]"
"COC(=O)N1CC(N2CCC(c3nn(C)c4ncc(-c5nc6cc(C)c([C@H](OC(C)(C)C)C(=O)O)c(-c7ccc(Cl)cc7)c6s5)nc34)CC2)C1 [Compound 119, (S)-2-(tert-butoxy)-2-(7-(4-chlorophenyl)-2-(3-(1-(1-(methoxycarbonyl)azetidin-3-yl)piperidin-4-yl)-1-methyl-1H-pyrazolo[3,4-b]pyrazin-5-yl)-5-methylbenzo[d]thiazol-6-yl)acetic acid]",310,8,332,–
"CC(=O)N1CC(N2CCC(c3nn(C)c4ncc(-c5nc6cc(C)c([C@H](OC(C)(C)C)C(=O)O)c(-c7ccc(Cl)cc7)c6s5)nc34)CC2)C1 [Compound 120, (S)-2-(2-(3-(1-(1-acetylazetidin-3-yl)piperidin-4-yl)-1-methyl-1H-pyrazolo[3,4-b]pyrazin-5-yl)-7-(4-chlorophenyl)-5-methylbenzo[d]thiazol-6-yl)-2-(tert-butoxy)acetic acid]",185,3,217,–
"Cc1cc2nc(-c3ccc4c(c3)c(N3CC(C)(C)NC3=O)nn4C)sc2c(-c2ccc(Cl)cc2)c1[C@H](OC(C)(C)C)C(=O)O [Compound 121, (S)-2-(tert-butoxy)-2-(7-(4-chlorophenyl)-2-(3-(4,4-dimethyl-2-oxoimidazolidin-1-yl)-1-methyl-1H-indazol-5-yl)-5-methylbenzo[d]thiazol-6-yl)acetic acid]",3480,39,2690,–
"COCC(C)N1CC(c2nn(C)c3ccc(-c4nc5cc(C)c([C@H](OC(C)(C)C)C(=O)O)c(-c6ccc(Cl)cc6)c5s4)cc23)C1 (stereo partly drawn) [Compound 124, (2S)-2-(tert-butoxy)-2-(7-(4-chlorophenyl)-2-(3-(1-(1-methoxypropan-2-yl)azetidin-3-yl)-1-methyl-1H-indazol-5-yl)-5-methylbenzo[d]thiazol-6-yl)acetic acid]",1440,4,3440,–
"CCN1CCC(c2nn(C)c3ccc(-c4nc5cc(C)c([C@H](OC(C)(C)C)C(=O)O)c(-c6ccc(Cl)cc6)c5s4)cc23)CC1 [Compound 126, (S)-2-(tert-butoxy)-2-(7-(4-chloro-phenyl)-2-(3-(1-ethylpiperidin-4-yl)-1-methyl-1H-indazol-5-yl)-5-methylbenzo[d]thiazol-6-yl) acetic acid]",551,8,540,–
"Cc1cc2nc(-c3ccc4c(c3)c(C3CCN(C(C)C)CC3)nn4C)sc2c(-c2ccc(Cl)cc2)c1[C@H](OC(C)(C)C)C(=O)O [Compound 127, (S)-2-(tert-butoxy)-2-(7-(4-chloro-phenyl)-2-(3-(1-isopropylpiperidin-4-yl)-1-methyl-1H-indazol-5-yl)-5-methylbenzo[d]thiazol-6-yl) acetic acid]",932,8,1700,–
"Cc1cc2nc(-c3ccc4c(c3)c(C3CCN(C5CCC5)CC3)nn4C)sc2c(-c2ccc(Cl)cc2)c1[C@H](OC(C)(C)C)C(=O)O [Compound 129, (S)-2-(tert-butoxy)-2-(7-(4-chloro-phenyl)-2-(3-(1-cyclobutylpiperidin-4-yl)-1-methyl-1H-indazol-5-yl)-5-methylbenzo[d]thiazol-6-yl) acetic acid]",509,–,696,5
"Cc1cc2nc(-c3ccc4c(c3)c(N3CCCN(C)CC3)nn4C)sc2c(-c2ccc(Cl)cc2)c1[C@H](OC(C)(C)C)C(=O)O [Compound 132, (S)-2-(tert-butoxy)-2-(7-(4-chloro-phenyl)-5-methyl-2-(1-methyl-3-(4-methyl-1,4-diazepan-1-yl)-1H-indazol-5-yl)benzo[d]thiazol-6-yl)acetic acid]",1100,25,1680,–
"Cc1cc2nc(-c3ccc4c(c3)c(N3CCC(N5CCC5)CC3)nn4C)sc2c(-c2ccc(Cl)cc2)c1[C@H](OC(C)(C)C)C(=O)O [Compound 136, (S)-2-(2-(3-(4-(azetidin-1-yl)piperidin-1-yl)-1-methyl-1H-indazol-5-yl)-7-(4-chlorophenyl)-5-methylbenzo[d]thiazol-6-yl)-2-(tert-butoxy) acetic acid]",857,14,1700,–
"Cc1cc2nc(-c3ccc4c(c3)c(N3CCC(C)(C(=O)N(C)C)CC3)nn4C)sc2c(-c2ccc(Cl)cc2)c1[C@H](OC(C)(C)C)C(=O)O [Compound 137, (S)-2-(tert-butoxy)-2-(7-(4-chloro-phenyl)-2-(3-(4-(dimethyl-carbamoyl)-4-methylpiperidin-1-yl)-1-methyl-1H-indazol-5-yl)-5-methylbenzo[d]thiazol-6-yl) acetic acid]",697,10,962,–
"Cc1cc2nc(-c3ccc4c(c3)c(N3CCN5C(=O)COC[C@@H]5C3)nn4C)sc2c(-c2ccc(Cl)cc2)c1[C@H](OC(C)(C)C)C(=O)O [Compound 138, (S)-2-(tert-butoxy)-2-(7-(4-chloro-phenyl)-5-methyl-2-(1-methyl-3-((S)-4-oxohexa-hydropyrazino[2,1-c][1,4]oxazin-8 (1H)-yl)-1H-indazol-5-yl)benzo[d]thiazol-6-yl)acetic acid]",373,7,678,–
"CO[C@H]1CCN(c2nn(C)c3ccc(-c4nc5cc(C)c([C@H](OC(C)(C)C)C(=O)O)c(-c6ccc(Cl)cc6)c5s4)cc23)C1 [Compound 139, (S)-2-(tert-butoxy)-2-(7-(4-chloro-phenyl)-2-(3-((S)-3-methoxy-pyrrolidin-1-yl)-1-methyl-1H-indazol-5-yl)-5-methylbenzo[d]thiazol-6-yl) acetic acid]",7810,88,5780,–
"CO[C@@H]1CCN(c2nn(C)c3ccc(-c4nc5cc(C)c([C@H](OC(C)(C)C)C(=O)O)c(-c6ccc(Cl)cc6)c5s4)cc23)C1 [Compound 140, (S)-2-(tert-butoxy)-2-(7-(4-chloro-phenyl)-2-(3-((R)-3-methoxy-pyrrolidin-1-yl)-1-methyl-1H-indazol-5-yl)-5-methylbenzo[d]thiazol-6-yl) acetic acid]",2370,29,2630,–
"Cc1cc2nc(-c3ccc4c(c3)c(N3CC5CCC(C3)O5)nn4C)sc2c(-c2ccc(Cl)cc2)c1[C@H](OC(C)(C)C)C(=O)O [Compound 141, (2S)-2-(2-(3-(8-oxa-3-azabicyclo [3.2.1]octan-3-yl)-1-methyl-1H-indazol-5-yl)-7-(4-chlorophenyl)-5-methylbenzo [d]thiazol-6-yl)-2-(tert-butoxy) acetic acid]",3560,24,3930,–
"COC1CCN(c2nn(C)c3ccc(-c4nc5cc(C)c([C@H](OC(C)(C)C)C(=O)O)c(-c6ccc(Cl)cc6)c5s4)cc23)CC1 [Compound 142, (S)-2-(tert-butoxy)-2-(7-(4-chloro-phenyl)-2-(3-(4-methoxypiperidin-1-yl)-1-methyl-1H-indazol-5-yl)-5-methylbenzo[d]thiazol-6-yl) acetic acid]",1560,12,2330,–
"Cc1cc2nc(-c3ccc4c(c3)c(N3CC5CC(C3)O5)nn4C)sc2c(-c2ccc(Cl)cc2)c1[C@H](OC(C)(C)C)C(=O)O [Compound 143, (2S)-2-(2-(3-(6-oxa-3-azabicyclo [3.1.1]heptan-3-yl)-1-methyl-1H-indazol-5-yl)-7-(4-chlorophenyl)-5-methylbenzo [d]thiazol-6-yl)-2-(tert-butoxy) acetic acid]",5780,–,5610,27
"Cc1cc2nc(-c3ccc4c(c3)c(N3CCOCC3)nn4C)sc2c(-c2ccc(Cl)cc2)c1[C@H](OC(C)(C)C)C(=O)O [Compound 144, (S)-2-(tert-butoxy)-2-(7-(4-chloro-phenyl)-5-methyl-2-(1-methyl-3-morpholino-1H-indazol-5-yl)benzo[d]thiazol-6-yl)acetic acid]",1810,10,3270,–
"Cc1cc2nc(-c3ccc4c(c3)c(N3CCC(C5COC5)CC3)nn4C)sc2c(-c2ccc(Cl)cc2)c1[C@H](OC(C)(C)C)C(=O)O [Compound 146, (S)-2-(tert-butoxy)-2-(7-(4-chloro-phenyl)-5-methyl-2-(1-methyl-3-(4-(oxetan-3-yl)piperidin-1-yl)-1H-indazol-5-yl)benzo[d]thiazol-6-yl)acetic acid]",1740,31,2220,–
"CC(=O)N1CC[C@@H]1CN1CCC(c2nn(C)c3ccc(-c4nc5cc(C)c([C@H](OC(C)(C)C)C(=O)O)c(-c6ccc(Cl)cc6)c5s4)cc23)CC1 [Compound 148, (S)-2-(2-(3-(1-(((R)-1-acetyl-azetidin-2-yl)methyl)piperidin-4-yl)-1-methyl-1H-indazol-5-yl)-7-(4-chloro-phenyl)-5-methylbenzo[d]thiazol-6-yl)-2-(tert-butoxy) acetic acid]",143,12,199,–
"Cc1cc2nc(-c3ccc4c(c3)c(C3CCN(C[C@@H]5CCN5C)CC3)nn4C)sc2c(-c2ccc(Cl)cc2)c1[C@H](OC(C)(C)C)C(=O)O [Compound 149, (S)-2-(tert-butoxy)-2-(7-(4-chloro-phenyl)-5-methyl-2-(1-methyl-3-(1-(((S)-1-methyl-azetidin-2-yl)methyl)piperidin-4-yl)-1H-indazol-5-yl)benzo[d]thiazol-6-yl) acetic acid]",80,11,98,–
